The text below walks through data of paper PMC6407204, “Oral administration of the cannabigerol derivative VCE-003.2 promotes subventricular zone neurogenesis and protects against mutant huntingtin-induced neurodegeneration” (Translational Neurodegeneration, 2019).

For data set [1], the system named is P19 cells. In words: P19 neurosphere formation assay. The data set is classed as cell-based, mouse. Particulars: P19 cells cultured 24 h. On the procedure:
All reagents, unless indicated, were from Sigma-Aldrich (St. Louis, MO, USA). The synthesis and structure of VCE-003.2 were previously described. Mouse embryonic teratocarcinoma P19 were cultured in high-glucose DMEM (Invitrogen) supplemented with 10% fetal bovine serum and 1% penicillin/streptomycin. P19 cells were plated in 24-well plates and transfected with Lipofectamine 2000 reagent according to the manufacture’s protocol (Invitrogen). Twenty-four hours post transfection, cells were collected for RNA extraction or luciferase assay determinations. […] Twenty-four hours later the mean neurosphere size was quantified. […]
Fig. 2 VCE-003.2 exerts a pro-neurogenic effect in vitro. a-b Mouse embryonic stem cells (R1 line) were treated with Vehicle, VCE-003.2 (500 nM) during neural differentiation for 21 days. Representative immunofluorescence images and quantification of CTIP2- and doublecortin-positive cells is shown (n = 3). c Luciferase reporter assay of the A4-MARS sequence of the CTIP2 locus was performed 24 h after P19 cell transfection under neuronal differentiation conditions and subject to pharmacological regulation as above. d P19 neurosphere formation assay was performed by culturing the cells for 24 h in the presence of Vehicle or VCE-003.2. […]

The subject of data set [2] is S. typhimurium TA100. Description: AMES reverse mutation assay, TA100. The data set is classed as cell-based. The protocol: Supplementary file 40035_2019_148_MOESM4_ESM.pdf: Additional file 4: AMES Data Summary. AMES Experimental Procedure. Approximately ten million bacteria are exposed in triplicate to VCE-003-.2 (7.8, 15.6, 31.3, 62.5, 125 and 250 μg/ml), a negative control (vehicle) and a positive control for 90 min in medium containing a low concentration of histidine (sufficient for about 2 doublings). The cultures were then diluted into indicator medium lacking histidine and dispensed into 48 wells of a 384 well plate (micro-plate format, MPF). The plate was incubated for 48 h at 37 °C, and the number of wells showing growth were counted and compared to the vehicle control. An increase in the number of colonies of at least two-fold over baseline (mean + SD of the vehicle control) and a dose response indicates a positive response. […] Where indicated, S9 fraction from the livers of Aroclor 1254-treated rats was included in the incubation at a final concentration of 4.5%. An NADPH-regenerating system is also included to ensure a steady supply of reducing equivalents. The strains used in this study were S. typhimurium TA98 (hisD3052, rfa, uvrB/pKM10 for detection of frame-shift mutations) and S. typhimurium TA100 ([…], rfa, uvrB/pKM101 for detection of base-pair substitutions). VCE-003.2 was assessed for its mutagenic potential in the AMES reverse mutation assay. This test was performed in the absence and presence of S9 metabolic activation. […] The positive controls all behaved as expected. (PDF 568 kb)

Data set [3] concerns liver. In words: Hepatotoxicity of chronic administration, liver hematoxylin-eosin staining. The data set is classed as in vivo. The conditions noted are these: mouse, data not shown. The protocol: As VCE-003.2 was previously shown to exert a neuroprotective action in preclinical HD models, and considering its pro-neurogenic profile, we evaluated the pathophysiological impact and potential therapeutic value of VCE-003.2 after oral administration. Pharmacokinetic analyses were performed in rats after oral administration of VCE-003.2 (50 mg/kg) dissolved in sesame oil. Plasma VCE-003.2 levels peaked at 8 h (Tmax) and then slowly declined to basal levels. […] We also investigated some critical ADME/Tox parameters. […] We also determined the potential hepatotoxicity of chronic VCE-003.2 administration by hematoxylin-eosin staining. […] We also determined the impact of VCE-003.2 administration on peripheral biomarkers by quantifying the levels of cytokines and other soluble mediators.

For data set [4], the system named is quinolinic acid-administration model of HD. The arrangement: method as in PMID 27430371. The conditions noted are these: cited from earlier work.
The subject of data set [5] is adipogenic. The conditions noted are these: compared with full PPARγ-agonists; cited from earlier work.

Structures are written as SMILES.

In data set [1], `CCCCCC1=C(NCC)C(=O)C(CC=C(C)CCC=C(C)C)=C(O)C1=O` [VCE-003.2, 2-(3,7-dimethyl-octa-2,6-dienyl)-6-ethylamino-3-hydroxy-5-pentyl-(1,4) benzoquinone] displayed a mean neurosphere size of 367.90 ± 15.20 μm. Also, the “AMES Result” value in data set [2] (TA100, S9 no) is “Negative”; in data set [2] (TA100, S9 yes), “Negative”. Moreover, the “hepatotoxicity, liver histology” value in data set [3] is given as “did not show any evidence of fibrosis, steatosis, vacuolization, ballooning or inflammation”. Further, the “neuroprotection in quinolinic acid model of HD” value in data set [4] is listed as “neuroprotective”. Moreover, the adipogenic effect entry in data set [5] was “less adipogenic”.
